The values that follow come from PMC3234597, “Two Panels of Steroid Receptor Luciferase Reporter Cell Lines for Compound Profiling” (Combinatorial Chemistry & High Throughput Screening, 2011).

“Also recorded” adds a separate entry of the source. Structures can show the parent of a compound that is named as a salt.

For orientation: EC50 means the concentration at which the effect is half-maximal. As a reminder, the IC50 is the concentration at which inhibition is half-maximal.

Holding throughout (format): cell-based
Experiment [1] has as its target T1, human GR (full-length) (Homo sapiens, UniProt P04150).
T1 construct: expression vectors encoding full-length steroid receptors: pcDNA3-hAR and pcDNA3-hGR; host or cells: U2OS
T1 sequence (P04150 1-777): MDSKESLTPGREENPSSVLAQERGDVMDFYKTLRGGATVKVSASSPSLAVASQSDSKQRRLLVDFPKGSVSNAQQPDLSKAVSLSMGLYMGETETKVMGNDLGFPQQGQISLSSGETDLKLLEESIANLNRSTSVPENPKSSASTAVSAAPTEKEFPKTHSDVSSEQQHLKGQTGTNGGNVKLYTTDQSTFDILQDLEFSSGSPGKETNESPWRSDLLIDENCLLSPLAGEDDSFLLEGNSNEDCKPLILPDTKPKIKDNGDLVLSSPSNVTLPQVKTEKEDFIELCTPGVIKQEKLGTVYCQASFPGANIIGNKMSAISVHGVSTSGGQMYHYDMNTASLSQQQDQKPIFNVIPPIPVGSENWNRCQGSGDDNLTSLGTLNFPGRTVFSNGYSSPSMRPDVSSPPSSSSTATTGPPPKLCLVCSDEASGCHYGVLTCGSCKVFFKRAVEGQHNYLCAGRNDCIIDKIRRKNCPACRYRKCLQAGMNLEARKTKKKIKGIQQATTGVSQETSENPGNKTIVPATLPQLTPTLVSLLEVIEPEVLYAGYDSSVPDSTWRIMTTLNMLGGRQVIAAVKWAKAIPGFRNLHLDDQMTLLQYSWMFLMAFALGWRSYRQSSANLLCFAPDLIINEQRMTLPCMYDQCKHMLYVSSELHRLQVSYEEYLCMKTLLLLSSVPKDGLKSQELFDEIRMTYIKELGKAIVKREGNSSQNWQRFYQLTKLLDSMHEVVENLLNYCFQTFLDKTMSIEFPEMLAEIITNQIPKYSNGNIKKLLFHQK
Briefly: U2OS-GR/3xGRE luciferase reporter cell line (full-length receptor). As to conditions: read-out: Log EC50 (converted).

The next experiment has as its target T2, human ERβ (full-length) (Homo sapiens, UniProt Q92731).
T2 construct: expression vectors encoding full-length steroid receptors: pcDNA3-hERα and pcDNA3-ERβ; expressed in transfected cells; host or cells: U2OS
Briefly: U2OS-ERβ/3xERE luciferase reporter cell line (full-length receptor). As to conditions: read-out: Log EC50 (converted).

Experiment [2] concerns the target T1, human GR (full-length). Kind of experiment: U2OS-GR/MMTV luciferase reporter cell line (full-length receptor). As to conditions: read-out: Log EC50 (converted). (In general: Reporter assays use an easily measured gene product as a stand-in for the process of interest.)
Another experiment concerns the target T3, PR-LBD fused to Gal4-DBD (Homo sapiens, UniProt P06401).
T3 construct: PR-LBD region was PCR amplified using the following primer combination; host or cells: U2OS
T3 sequence (P06401 679-913 limits assumed): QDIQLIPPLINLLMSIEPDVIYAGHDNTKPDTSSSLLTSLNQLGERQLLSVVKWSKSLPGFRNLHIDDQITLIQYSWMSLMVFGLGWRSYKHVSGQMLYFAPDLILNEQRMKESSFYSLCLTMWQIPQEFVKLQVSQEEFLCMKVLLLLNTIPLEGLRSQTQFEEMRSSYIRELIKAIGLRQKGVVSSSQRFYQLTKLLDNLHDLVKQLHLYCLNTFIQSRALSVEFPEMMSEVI
Briefly: U2OS-PR-LBD/9xGal4UAS luciferase reporter cell line. As to conditions: for IC50: antagonist mode, PR-LBD/9xGal4UAS, log10 of molar IC50, mean ± SEM, read-out: Log IC50 (converted); for EC50: read-out: Log EC50 (converted).

The target of a further experiment is T4, GR-LBD fused to Gal4-DBD (Homo sapiens, UniProt P04150).
T4 construct: expressed in transfected cells; host or cells: U2OS
T4 sequence (P04150 524-758 limits assumed): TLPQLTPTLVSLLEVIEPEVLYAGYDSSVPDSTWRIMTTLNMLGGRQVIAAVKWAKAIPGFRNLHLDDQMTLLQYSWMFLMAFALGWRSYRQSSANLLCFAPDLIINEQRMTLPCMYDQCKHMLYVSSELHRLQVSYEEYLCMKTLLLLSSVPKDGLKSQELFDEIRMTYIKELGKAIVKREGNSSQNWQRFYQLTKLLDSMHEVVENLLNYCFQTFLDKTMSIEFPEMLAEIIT
Kind of experiment: U2OS-GR-LBD/9xGal4UAS luciferase reporter cell line. The following applies: read-out: Log EC50 (converted).

Experiment [3] has as its target T5, ERβ-LBD fused to Gal4-DBD (Homo sapiens, UniProt Q92731).
T5 construct: region comprising ERβ-LBD and a piece of the hinge region; expressed in transfected cells; host or cells: U2OS
Kind of experiment: U2OS-ERβ-LBD/9xGal4UAS luciferase reporter cell line. The following applies: read-out: Log EC50 (converted).

A further experiment addresses T6, MR-LBD fused to Gal4-DBD (Homo sapiens, UniProt P08235).
T6 construct: MR-LBD was cloned by RT-PCR from total RNA isolated from HEK293 cells; expressed in transfected cells; host or cells: U2OS
T6 sequence (P08235 726-964 limits assumed): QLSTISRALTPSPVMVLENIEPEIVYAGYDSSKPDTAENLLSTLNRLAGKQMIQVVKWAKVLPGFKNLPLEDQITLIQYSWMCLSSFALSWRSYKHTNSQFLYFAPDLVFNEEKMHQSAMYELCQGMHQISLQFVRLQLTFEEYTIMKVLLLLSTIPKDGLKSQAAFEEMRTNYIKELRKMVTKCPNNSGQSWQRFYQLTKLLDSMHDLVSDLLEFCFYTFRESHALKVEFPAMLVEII
Briefly: U2OS-MR-LBD/9xGal4UAS luciferase reporter cell line. As to conditions: for EC50: read-out: Log EC50 (converted).

The next experiment addresses T7, human MR (full-length) (Homo sapiens, UniProt P08235).
T7 construct: expression vectors encoding full-length steroid receptors: pcDNA3-hAR, pcDNA3-hGR and pcDNA3-hMR; expressed in transfected cells; host or cells: U2OS
T7 sequence (P08235 1-984): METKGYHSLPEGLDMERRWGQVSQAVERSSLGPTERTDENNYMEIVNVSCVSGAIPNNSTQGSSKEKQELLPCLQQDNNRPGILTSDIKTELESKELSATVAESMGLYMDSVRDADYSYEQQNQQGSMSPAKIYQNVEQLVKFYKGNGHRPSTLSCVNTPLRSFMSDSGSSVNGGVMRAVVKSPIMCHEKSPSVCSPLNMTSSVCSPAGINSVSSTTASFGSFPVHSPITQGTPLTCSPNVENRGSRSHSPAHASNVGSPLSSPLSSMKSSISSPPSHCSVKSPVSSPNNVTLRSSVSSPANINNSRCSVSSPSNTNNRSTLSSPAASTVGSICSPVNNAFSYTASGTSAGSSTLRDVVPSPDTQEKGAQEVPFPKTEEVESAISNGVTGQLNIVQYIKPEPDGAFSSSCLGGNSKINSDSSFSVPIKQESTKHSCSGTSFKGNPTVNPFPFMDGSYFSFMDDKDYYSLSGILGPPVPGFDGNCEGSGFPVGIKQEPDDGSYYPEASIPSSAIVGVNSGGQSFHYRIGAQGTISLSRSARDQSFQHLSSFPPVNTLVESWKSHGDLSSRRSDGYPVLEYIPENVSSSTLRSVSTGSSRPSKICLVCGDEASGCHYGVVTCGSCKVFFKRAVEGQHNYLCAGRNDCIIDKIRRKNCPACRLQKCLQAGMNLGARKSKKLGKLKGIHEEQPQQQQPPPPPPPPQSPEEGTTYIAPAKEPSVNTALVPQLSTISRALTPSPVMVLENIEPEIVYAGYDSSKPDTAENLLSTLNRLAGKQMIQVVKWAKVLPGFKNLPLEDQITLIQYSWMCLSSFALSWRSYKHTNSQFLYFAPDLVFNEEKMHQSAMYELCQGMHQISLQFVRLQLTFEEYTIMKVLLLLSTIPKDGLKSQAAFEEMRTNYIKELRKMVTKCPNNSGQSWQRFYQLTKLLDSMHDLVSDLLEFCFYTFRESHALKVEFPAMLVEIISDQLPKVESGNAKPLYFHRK
Kind of experiment: U2OS-MR/MMTV luciferase reporter cell line (full-length receptor). The following applies: for EC50: read-out: Log EC50 (converted).

T2 sequence (Q92731 whole entry): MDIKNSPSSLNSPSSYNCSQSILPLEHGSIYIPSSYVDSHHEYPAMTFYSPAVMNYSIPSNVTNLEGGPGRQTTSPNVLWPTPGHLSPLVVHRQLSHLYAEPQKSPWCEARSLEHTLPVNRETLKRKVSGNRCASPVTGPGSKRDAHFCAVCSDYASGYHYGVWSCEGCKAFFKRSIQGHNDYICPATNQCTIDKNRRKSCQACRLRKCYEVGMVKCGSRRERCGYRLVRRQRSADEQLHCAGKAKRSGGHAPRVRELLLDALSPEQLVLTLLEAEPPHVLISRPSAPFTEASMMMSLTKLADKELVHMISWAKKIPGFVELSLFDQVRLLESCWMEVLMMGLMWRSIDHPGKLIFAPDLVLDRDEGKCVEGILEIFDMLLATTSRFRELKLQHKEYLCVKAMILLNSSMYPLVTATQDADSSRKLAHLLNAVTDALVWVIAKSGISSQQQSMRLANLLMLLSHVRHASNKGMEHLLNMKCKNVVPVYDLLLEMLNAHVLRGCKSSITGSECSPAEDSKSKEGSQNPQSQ
T5 sequence (Q92731 264-498 limits assumed): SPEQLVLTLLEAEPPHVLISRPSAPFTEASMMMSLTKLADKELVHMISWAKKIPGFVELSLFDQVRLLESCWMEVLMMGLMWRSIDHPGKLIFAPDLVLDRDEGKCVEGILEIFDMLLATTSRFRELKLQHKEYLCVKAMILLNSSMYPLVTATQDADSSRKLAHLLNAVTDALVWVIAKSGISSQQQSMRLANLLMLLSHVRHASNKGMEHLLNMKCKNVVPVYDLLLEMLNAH

In the case of `CC(=O)C1(O)CCC2C3CCC4=CC(=O)CCC4(C)C3CCC21C` (stereo not drawn) [17α-hydroxyprogesterone], the EC50 (on human GR (full-length) [1]; at human ERβ (full-length); on human GR (full-length) [2]; at PR-LBD fused to Gal4-DBD; on GR-LBD fused to Gal4-DBD; in experiment [3]) was over 10 µM throughout. Moreover, the IC50 at PR-LBD fused to Gal4-DBD was over 10 µM.

`O=C(c1ccc(OCCN2CCCCC2)cc1)c1c(-c2ccc(O)cc2)sc2cc(O)ccc12` [Raloxifene hydrochloride, raloxifene hydrochloride]: the EC50 on MR-LBD fused to Gal4-DBD and at human MR (full-length) was over 10 µM throughout.

Consider `C[C@@H]1C[C@H]2[C@@H]3CCC4=CC(=O)C=C[C@]4(C)[C@@]3(F)[C@@H](O)C[C@]2(C)[C@@]1(O)C(=O)CO` [Dexamethasone, dexamethasone], for which the “activity profile in words” value at MR-LBD fused to Gal4-DBD (MR-LBD expressing reporter cell line, agonist and antagonist mode) was “only weakly and partially activated; also recorded: pronounced full antagonist effect”. For the same compound, the “activity profile in words” value at human MR (full-length) (full-length MR format, antagonist mode) was “no sign of antagonistic activity”. Also, at PR-LBD fused to Gal4-DBD, the IC50 is over 10 µM and the EC50 was 4.79 µM.

In the case of `CC/C(=C(\c1ccccc1)c1ccc(OCCN(C)C)cc1)c1ccccc1` [Tamoxifen citrate, tamoxifen citrate], the EC50 on human GR (full-length) [1], on MR-LBD fused to Gal4-DBD, on human MR (full-length), at human GR (full-length) [2] and at GR-LBD fused to Gal4-DBD was over 10 µM in each case.

Turning to `CC/C(=C(/CC)c1ccc(O)cc1)c1ccc(O)cc1` [DES, Diethylstilbestrol], the EC50 at MR-LBD fused to Gal4-DBD and on human MR (full-length) was over 10 µM each time.
